Experiment [1] deals with T1, human cytochrome P450 51 (hCYP51) (Homo sapiens, UniProt Q16850).
T1 sequence (Q16850 1-509): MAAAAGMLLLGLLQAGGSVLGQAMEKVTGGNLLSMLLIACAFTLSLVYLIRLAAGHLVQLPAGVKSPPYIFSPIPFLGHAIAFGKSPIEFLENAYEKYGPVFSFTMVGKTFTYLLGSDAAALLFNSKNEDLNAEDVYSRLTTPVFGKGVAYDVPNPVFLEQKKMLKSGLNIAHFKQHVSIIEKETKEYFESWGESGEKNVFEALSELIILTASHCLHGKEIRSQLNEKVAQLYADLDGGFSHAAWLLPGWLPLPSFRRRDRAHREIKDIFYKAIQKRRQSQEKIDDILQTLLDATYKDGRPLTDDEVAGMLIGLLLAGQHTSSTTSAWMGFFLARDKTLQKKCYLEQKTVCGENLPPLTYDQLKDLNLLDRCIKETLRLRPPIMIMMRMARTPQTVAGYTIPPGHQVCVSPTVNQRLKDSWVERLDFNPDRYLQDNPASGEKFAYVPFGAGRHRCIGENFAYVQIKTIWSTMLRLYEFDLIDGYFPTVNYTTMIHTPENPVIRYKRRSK
The experiment in a line: enzymatic assay, [[…]-3H]lanosterol conversion by purified hCYP51/CPR, radio-HPLC. Format: biochemical.

The target in experiment [2] is T1, human cytochrome P450 51 (hCYP51). Described as above. Format: biochemical. The source holds these as a separate data set.

Each structure is given as a SMILES string. Like-named read-outs stand apart in the source and are kept apart here.

One may read the IC50 as the midpoint of a concentration-inhibition curve. Read a high IC50 as weaker potency in that assay. In experiment [1], `C[C@@H](c1nc(-c2ccc(C#N)cc2)cs1)[C@](O)(Cn1cncn1)c1cc(F)ccc1F` [ICZ, isavuconazole] returned a concentration for half-maximal inhibition (IC50) of 50.5 µM. Consider `CC[C@@H]([C@H](C)O)n1ncn(-c2ccc(N3CCN(c4ccc(OC[C@@H]5CO[C@@](Cn6cncn6)(c6ccc(F)cc6F)C5)cc4)CC3)cc2)c1=O` [PCZ, posaconazole], for which the IC50 in experiment [2] was determined as 8.3 µM.

Source of the values: article PMC8434776 (Antiviral research, 2021).
